Reference: a melting point compilation (Tetko et al.; mined from patent text by program, amines drawn as free bases though some values may be those of a salt)

SMILES | melting point
Cc1cc(-c2csc(-c3ccc(C(=O)O)cc3)n2)c(C)s1 | 239 to 240 °C
C[C@@H](n1cnc2cc(Br)c(F)cc2c1=O)[C@](O)(Cn1cncn1)c1ccc(F)cc1F | 185 to 186 °C
CC(Cc1ccncc1)(NC(=O)OC1C2CC3CC(C2)CC1C3)C(=O)NCCc1ccccc1 (centres undefined) | 176 °C
c1ccc(-c2ncc(-c3cnc(-c4ccccc4)[nH]3)cn2)cc1 | 253 °C
COc1c(C)cc([N+](=O)[O-])cc1C(=S)N(C)C | 138 to 139 °C
CCc1cc(OCc2ccc(-c3ccccc3-c3nnn(C(c4ccccc4)(c4ccccc4)c4ccccc4)n3)cc2)c2c(n1)CCN(C)C2 | 143 to 144 °C
Cc1nc(N2CCCC2)ccc1N1CCCn2c1nc1c(Cl)ccc(C(OC(F)F)C(F)(F)F)c12 (centres undefined) | 233 to 236 °C
CC(C)C1OC(=Nc2ccccn2)c2c1nc1c(C(F)(F)F)cccc1c2O (centres undefined) | 178 to 180 °C
O=C(c1c(F)cccc1F)N1CNCN(c2ccc(Cl)cc2)C1=O | 167 to 168 °C
O=C(Nc1ccccc1)OCC1(COC(=O)Nc2ccccc2)CSc2ccccc2C1=O | 67 to 69 °C
CCn1nc(C)c2c1C(=O)Nc1ccccc1N2C(=O)CN1CCN(C)CC1 | 145 to 146 °C
COC(=O)c1ccc(C#CC(O)c2cc(C(C)(C)C)c(OCOCC[Si](C)(C)C)c(C(C)(C)C)c2)cc1 (centres undefined) | 91 to 92 °C
CC(C)(C)OC(=O)NCC(=O)NCc1ccc(Nc2n[nH]c3ncnc(Nc4cccc(Cl)c4)c23)cc1 | 205 °C
CCCCCCCCCCCCSCN(O)CSCCCCCCCCCCCC | 63 to 65 °C
Nc1cc(Cl)cc2cccnc12 | 70 to 73 °C
COC(=O)CCCn1sc(Cl)cc1=O | 54 to 56 °C
CCCCc1nc(Cl)c(CC(=O)O)c(Cc2ccc(C(=O)O)cc2)n1 | 205 °C
COc1ccc(C(=O)N2CCc3nnc(NN)cc3C2)cc1 | 169 to 172 °C
CCCc1nc2c(N)nc3cc(C)ccc3c2o1 | 188 to 189 °C
O=C1CN(Cc2ccccc2)C(=S)N1 | 150 to 152 °C
COc1ccc(-c2cc(N3CCN(C(=O)c4cc(S(N)(=O)=O)c(Cl)cc4Cl)CC3)nc(C)n2)cc1OC | 150 to 160 °C
CN1C(=S)N(c2ccc(C#N)c(C(F)(F)F)c2)C(=N)C12CCCC2 | 165 to 166 °C
C=C(CO)C[C@](C)(O)[C@H]1CC[C@H]2[C@@H](O[Si](C)(C)C(C)(C)C)CCC[C@@]21C | 95 °C
CN(c1cccc2cc(C(=O)NCC(C)(C=O)SCc3ccccc3)[nH]c12)S(=O)(=O)c1cccs1 (centres undefined) | 149 to 150 °C
N#Cc1ccc2c(c1)CCC=C2c1cncs1 | 78 to 79 °C

SMILES | melting point
CCCN(C(=O)OCC(Cl)(Cl)Cl)C1CN(C(=O)Nc2ccc(C(F)(F)F)cc2)N=C1c1ccc(OC(F)F)c(C)c1 (centres undefined) | 165 to 166 °C
COC(=O)C1=CC[C@H]2[C@@](C=O)(CCC3C(C)(C)CCC[C@@]32C)C(=O)C1 (some centres undefined) | 86 to 88 °C
CCOC(=O)c1ccc(C(C)(C)C(N)=O)cc1 | 104 to 109 °C
O=Cc1cc(-n2nnnc2C(F)(F)F)ccc1OCC1CC1 | 80 to 82 °C
COC(=O)Oc1ccc(N=Cc2ccc(C#N)cc2)cc1 | 145 to 146 °C
Nc1ncc(-c2ccc(=O)[nH]n2)c(-c2cccs2)n1 | 265 °C
COc1c2ccccc2c(-c2cc(Br)c(O[C@H](Cc3ccccc3)C(=O)O)c(Br)c2)c2c1sc1ccccc12 | 102 to 110 °C
O=C(O)c1ccc(OCc2ccccc2CCc2ccccc2)cc1 | 178 to 180 °C
O=C(c1ccc(O)cc1)c1ccc(OCCOCCO)cc1 | 126 to 127 °C
CN(C)CCc1c[nH]c2ccc(C=CC(=O)NCc3ccc([N+](=O)[O-])cc3)cc12 | 177 to 187 °C
COc1nc2cc(F)cc(CBr)c2nc1OC | 122 to 125 °C
CCC1C(=O)N(CC)CCc2cc(Nc3ncc(Cl)c(N[C@@H]4CCCC[C@H]4NS(C)(=O)=O)n3)c(OC)cc21 (some centres undefined) | 126 to 127 °C
CCOP(=O)(CC(Nc1cccnc1)c1cc(OC)c(OC)c(OC)c1)OCC (centres undefined) | 104 to 106 °C
N=C(N)Nc1nc(CCCCNc2ncc(Cc3ccc(Cl)cc3)c(=O)[nH]2)cs1 | 200 to 205 °C
O=C(NC1CCN(CCC2CCOc3ccccc32)CC1)c1cc2ccccc2o1 (centres undefined) | 146 to 148 °C
CC(C(N)=O)c1ccc2c(c1)C(=O)Cc1cc(C(F)(F)F)ccc1S2 (centres undefined) | 159 to 161 °C
O=C1Nc2ccccc2S(=O)(=O)N1C1CCN(Cc2ccccc2)CC1 | 169 to 171 °C
CC(C)c1nc(COC(=O)N[C@H](C(=O)N[C@@H](Cc2ccccc2)[C@@H](O)C[C@H](Cc2ccccc2)NC(=O)OCc2cncs2)C(C)C)cs1 | 172 to 174 °C
COC(=O)C1OC(Oc2nc[nH]c2C(N)=O)C(OC(C)=O)C(OC(C)=O)C1OC(C)=O (centres undefined) | 211 to 212 °C
Nc1ccc(Cc2nc3ccccc3o2)cc1 | 105 to 106 °C
N[C@@H](Cc1ccc(C(F)(F)F)cc1)[C@H](O)c1cccc(F)c1 (racemic) | 81 to 82 °C
COc1cc(Cl)nc(N(C=O)c2ccccc2)n1 | 118 to 120 °C
O=C1Nc2ccccc2SC1CCBr (centres undefined) | 151 to 152 °C
CS(=O)(=O)NCCC(c1cc(F)ccc1F)S(=O)(=O)c1ccc(Cl)cc1 (centres undefined) | 131 to 134 °C
O=C(Nc1ccc2nc(CN3CCCC3)ccc2c1)c1ccc(N2CCCCC2=O)cc1 | 210 to 212 °C

SMILES | melting point
CC(=O)NCc1cccc(C#N)c1 | 94 to 96 °C
CC1(C)CC(=O)N(C(=O)Nc2ccccc2)CC(C)(C)N1O | 112 to 114 °C
CP(C)(=O)CNc1cc(Oc2ccc(C(F)(F)F)cn2)ccc1[N+](=O)[O-] | 158 to 160 °C
O=C(CC(=O)c1ccccc1)C(=O)CC(=O)c1ccccc1 | 178 to 180 °C
COC(=O)[C@@H]1CCCN1C(=O)CCC(=O)c1ccccc1 | 66 to 70 °C
CC(c1ncnc(Cl)c1F)C(O)(Cn1cncn1)c1ccc(F)cc1F (centres undefined) | 92 °C
CCCCCCCCCCCCCCOc1cccc(CBr)c1 | 34 to 35 °C
C=CC1(F)CN(C2CCCC2)c2nc(Nc3ccc(C(=O)NN4CCN(C)CC4)cc3OC)ncc2N(C)C1=O (centres undefined) | 253 to 263 °C
CCOC(=O)C1=C(C)NC(C)=C(C(=O)OCC)C1c1cccc(F)c1F | 161 to 162 °C
COC(=O)c1ccc2c3cccc4cccc(c5ccc(C(=O)N(C)c6ccc(C(C)(C)C)cc6)c1c25)c43 | 272 °C
CN(C)CC(C)(C)Oc1ccc(Nc2cc(-c3cccc(-n4ncc5cc(C(C)(C)C)cc(F)c5c4=O)c3CO)nn(C)c2=O)nn1 | 140 to 145 °C
CCCCCn1c(C)c(C(=O)c2ccc(Cl)c3ccccc23)c2cccc(OC)c21 | 112 °C
O=C(c1ccc(O)c(F)c1)N(c1ccc(O)cc1)c1ccc(F)cc1 | 110 to 112 °C
CC(=O)NC(=O)c1cccc(-c2noc(-c3ccccc3F)n2)c1 | 119 to 120 °C
NC(=O)Cc1nc(-c2ccccc2)c(-c2ccccc2)o1 | 129 to 133 °C
CS(=O)(=O)Nc1cc([N+](=O)[O-])ccc1OC1CCCCC1 | 105 to 106 °C
CCC/C=C/c1ccc(C#CC(C)(C)O)cc1 | 65 °C
CCOC(=O)c1cnn(-c2ccc(OC)c(C#N)c2)c1 | 192 to 193 °C
CC(Oc1ccccc1Cl)c1nnc(C2C(O)NC(=O)N2C)s1 (centres undefined) | 122 to 124 °C
COC(=O)C(Br)c1ccc(OCCCOc2ccc(Cl)cc2)cc1 (centres undefined) | 49 to 53 °C
CC1(C)C=C(n2cccnc2=O)c2cc(C#N)ccc2O1 | 250 to 252 °C
Cc1c(-n2ccnc2)n(Cc2ccc(C(=O)O)cc2)c2ccccc12 | 221 to 225 °C
O=c1nc(-c2cccc(CS(=O)(=O)Cc3ccccc3)n2)sc2ccccc12 | 246 to 248 °C
COc1c(Cl)ccc(-c2nc(C(=O)OCc3ccc(OC(F)(F)F)cc3)c(Cl)c(N)c2F)c1F | 155 to 156 °C
Cc1ccc(-c2cc(=O)c(Br)c(C(=O)O)o2)cc1 | 202 to 204 °C

SMILES | melting point
COc1ccc2c(c1)CCCC2(N)C(=O)O (centres undefined) | > 250 °C
COC1=NC2OC(C(O)c3ccc(Cl)cc3Cl)=C(N)C2C=C1 (centres undefined) | 259 to 260 °C
O=C(c1ccccc1)c1cnn2c1NCCC2 | 173 to 174 °C
CN1C(=O)CC[C@]2(C)c3ccc(-c4cccnc4)cc3CC[C@@H]12 | 135 °C
CCCCCCCCCCCCCCCC(=O)NC(C(=O)OC)C(O)CCCCCCCCCCCCCCC (centres undefined) | 80 °C
CNc1c(C(=O)OC)cccc1[N+](=O)[O-] | 138 to 140 °C
N#CCC(c1ccccn1)c1cc(N)cc2c1OCC2 (centres undefined) | 143 to 144 °C
OC1CCCCC1n1c(Br)nc2cc(Cl)c(Cl)cc21 (centres undefined) | 186 to 188 °C
CC(C)OC(=O)N1CCC(c2nc3cc(-c4ccc(C(=O)NCCO)c(F)c4)ccc3o2)CC1 | 145 to 147 °C
Cn1nnnc1-c1ccc2c(c1)S(=O)(=O)c1ccccc1C2=O | 270 to 271 °C
O=C(O)CCC(=O)c1cc2c(s1)CCc1ccccc1C2 | 202 to 203 °C
Cc1c(-c2ccc(C[C@H](NC(=O)c3c(F)cccc3C(F)(F)F)C(=O)O)cc2)c(=O)n(C)c(=O)n1C | 218 to 220 °C
CC(=O)/C=C/c1cc(F)c2ncc(C(=O)NCc3ccc(Cl)cc3)c(O)c2c1 | 286 to 289 °C
CSc1noc(-c2ccc(OCCOc3ccccc3)cc2)c1C#N | 128 to 131 °C
COP(=O)(Cc1ccc(NC(=O)/C=C/c2cnn(C)c2-c2ccc(F)cc2)cc1)OC | 209 to 210 °C
O=S(c1cc(Br)c(-c2ccc(Cl)cc2)[nH]1)C(F)(F)F (centres undefined) | 177 to 179 °C
CCOC(=O)/C=C/c1ccccc1C#N | 60 to 62 °C
Nc1c(F)c(N2CC3NCCOC3C2)c(F)c2c1c(=O)c(C(=O)O)cn2C1CC1F (centres undefined) | 292 to 294 °C
CC(=O)c1c(F)cc2c(=O)c(C(=O)O)cn3c2c1OCC3C (centres undefined) | 258 to 259 °C
OCc1ccc2cccc3c2c1-c1ccccc1-3 | 147 to 185 °C
CC(=S)Nc1ccc(C(=O)O)cc1 | 220 °C
CON1C=C2N=NC3=C(N2C1)N(c1ccccc1)CC(C)=C3 | 214 to 217 °C
CCCc1[nH]c2cc(C(N)=O)ccc2c1C(=O)COC | 165 to 167 °C
Nc1nsnc1NCCCOc1cccc(CN2CC=CCC2)c1 | 99.5 to 104 °C
